These results are taken from patent publication US10961189B2, “Spiro-lactam NMDA receptor modulators and uses thereof” (Aptinyx Inc., priority 2016, dated 2021).

Some results are limits rather than exact numbers.

The subject of data set [1] is Sprague Dawley rats. The experiment in a line: Porsolt forced swim test. In kind it is in vivo, rat. The settings on record: 0.1 mg/kg. The method, then: A non-clinical in vivo pharmacology study (Porsolt assay) was performed to measure antidepressant-like effects. A negative control (0.5% sodium carboxymethyl cellulose in 0.9% sterile saline vehicle) and a positive control (fluoxetine) are shown for comparison against test compound. The study allowed for the evaluation of the effects of each compound on the Porsolt forced swim test as assessed by the rats' response (reduced floating time) during a 5-minute swimming test.
Male 2-3 month old Sprague Dawley rats were used (Harlan, Indianapolis, Ind.). Rats were housed in Lucite cages with aspen wood chip bedding, maintained on a 12:12 light:dark cycle (lights on at 5 AM), and given ad libitum access to Purina lab chow (USA) and tap water throughout the study.
The Porsolt forced swim test adapted for use in rats was performed as described by Burgdorf et al., (The long-lasting antidepressant effects of rapastinel (GLYX-13) are associated with a metaplasticity process in the medial prefrontal cortex and hippocampus. Neuroscience 308:202-211, 2015). Animals were placed in a 46 cm tall×20 cm in diameter clear glass tube filled to 30 cm with tap water (23±1° C.) for 15 min on the first day (habituation) and 5 min on the subsequent test day. Positive control fluoxetine was dosed 3 times (24 h, 5 h and 1 h) prior to testing. Animals were tested 1 h or 24 h post-dosing with the test compounds or vehicle. Animals received a 15 min habituation session 1 day before the 5 min test. A subset of compounds tested at 1 h post-dosing were retested at 1 wk post-dosing in the same sets of animals. Water was changed after every other animal. Animals were videotaped, and floating time as defined as the minimal amount of effort required to keep the animals head above water was scored offline by a blinded experimenter with high inter-rater reliability (Pearson's r>0.9).
Each compound tested at dose level shown. Significance vs. vehicle group for each experiment is marked. […] A compound marked “No” was not statistically significant from vehicle. Data was averaged for test compound and vehicle groups (N approximately 8 per group) and the percent reduction in floating for group treated with test compound relative to group treated with vehicle is shown.

Data set [2] is described as follows: IV pharmacokinetics. In kind it is in vivo, Sprague Dawley rats. The settings on record: rat, normal saline (* in 5% NMP, 5% Solutol HS, 90% normal saline); for AUC(0-t) / half-life / C0 / Vd: Sprague-Dawley, in vivo, iv, 2 mg/kg; for C0: read-out: C0; for Vd: read-out: Vss; for CI: intravenous 2 mg/kg. The source says: The table below summarizes the results of the IV pharmacokinetics.

Data set [3] can be described thus: oral pharmacokinetics (plasma, brain, CSF). The format is in vivo, Sprague Dawley rats. The settings on record: rat, per os 10 mg/kg; for AUC(0-t) / bioavailability / Tmax / Cmax: Sprague-Dawley, plasma, po, 10 mg/kg; for Tmax: normal saline (* in 5% NMP, 5% Solutol HS, 90% normal saline), read-out: Tmax; for Cmax: read-out: Cmax.
Procedure: In another experiment, Sprague Dawley rats were dosed per os using a normal saline formulation containing 10 mg/kg of the compounds identified in the table below (except for the compounds marked with an asterisk (“*”) that were delivered in 5% NMP, 5% Solutol® HS and 90% normal saline formulation). Plasma, brain, and CSF samples were analyzed at various time points over a 24 hour period.
In data set [4] the target is T1, NMDAR2A (Homo sapiens, UniProt Q12879).
T1 construct: expressed in transfected cells; host or cells: HEK cells (membrane extract)
Kind of data set: [3H]MK-801 binding in NMDAR expressing HEK cell membranes (facilitation of NMDAR activation). The format is biochemical. The settings on record: 50 μM glutamate; for EC50: read-out: B: log EC50 (converted); for Emax: 0.25 h, read-out: A: % maximal [3H]MK-801 binding relative to 1 mM glycine. On the procedure:
(§1) Assays were conducted as described by Moskal et al., “GLYX-13: a monoclonal antibody-derived peptide that acts as an N-methyl-D-aspartate receptor modulator,” Neuropharmacology, 49, 1077-87, 2005. These studies were designed to determine if the test compounds act to facilitate NMDAR activation in NMDAR2A, NMDAR2B, NMDAR2C or NMDAR2D expressing HEK cell membranes as measured by increases in [^3H]MK-801 binding.
(§2) In the assay, 300 μg of NMDAR expressing HEK cell membrane extract protein was preincubated for 15 minutes at 25° C. in the presence of saturating concentrations of glutamate (50 μM) and varying concentrations of test compound (1×10^15M−1×10^−7M), or 1 mM glycine. Following the addition of 0.3 μCi of [^3H]MK-801 (22.5 Ci/mmol), reactions were again incubated for 15 minutes at 25° C. (nonequilibrium conditions). Bound and free [^3H]MK-801 were separated via rapid filtration using a Brandel apparatus.
(§3) In analyzing the data, the DPM (disintegrations per minute) of [^3H]MK-801 remaining on the filter were measured for each concentration of test compound or for 1 mM glycine. The DPM values for each concentration of a ligand (N=2) were averaged. The baseline value was determined from the best fit curve of the DPM values modeled using the GraphPad program and the log(agonist) vs. response (three parameters) algorithm was then subtracted from all points in the dataset. The % maximal [^3H]MK-801 binding was then calculated relative to that of 1 mM glycine: all baseline subtracted DPM values were divided by the average value for 1 mM glycine. The EC50 and % maximal activity were then obtained from the best fit curve of the % maximal [^3H]MK-801 binding data modelled using the GraphPad program and the log(agonist) vs. response (three parameters) algorithm.
(§4) The tables below summarize the results for the wild type NMDAR agonists NMDAR2A, NMDAR2B, NMDAR2C, and NMDAR2D, and whether the compound is not an agonist (−), is an agonist (+), or is a strong agonist (++), where column A is based on the % maximal [^3H]MK-801 binding relative to 1 mM glycine (−=0; <100%=+; and >100%=++); and column B is based on log EC50 values (0=−; ≥1×10^−9 M (e.g., −8)=+; and <1×10^−9 M (e.g., −10)=++).

The target in data set [5] is T2, NMDAR2B (Homo sapiens, UniProt Q13224).
T2 construct: expressed in transfected cells; host or cells: HEK cells (membrane extract)
The description is as above. The format is biochemical. The settings on record: 50 μM glutamate; for EC50: read-out: B: log EC50 (converted); for Emax: 0.25 h, read-out: A: % maximal [3H]MK-801 binding relative to 1 mM glycine. On the procedure: as §1, §2, §3, §4

One may read the AUC(0-t) as exposure summed from dosing to a finite time, without extrapolation to infinity. The half-life is how long it takes for the measured level to halve. One may read the bioavailability as the share of a dose that reaches the circulation, judged against a reference dose that is usually intravenous. One may read the Tmax as the time from dosing to the highest level. The term Cmax denotes the highest concentration seen after dosing. The term EC50 denotes the concentration that produces a half-maximal response.

T2 sequence (Q13224 27-1484, species assumed, other chains not shown): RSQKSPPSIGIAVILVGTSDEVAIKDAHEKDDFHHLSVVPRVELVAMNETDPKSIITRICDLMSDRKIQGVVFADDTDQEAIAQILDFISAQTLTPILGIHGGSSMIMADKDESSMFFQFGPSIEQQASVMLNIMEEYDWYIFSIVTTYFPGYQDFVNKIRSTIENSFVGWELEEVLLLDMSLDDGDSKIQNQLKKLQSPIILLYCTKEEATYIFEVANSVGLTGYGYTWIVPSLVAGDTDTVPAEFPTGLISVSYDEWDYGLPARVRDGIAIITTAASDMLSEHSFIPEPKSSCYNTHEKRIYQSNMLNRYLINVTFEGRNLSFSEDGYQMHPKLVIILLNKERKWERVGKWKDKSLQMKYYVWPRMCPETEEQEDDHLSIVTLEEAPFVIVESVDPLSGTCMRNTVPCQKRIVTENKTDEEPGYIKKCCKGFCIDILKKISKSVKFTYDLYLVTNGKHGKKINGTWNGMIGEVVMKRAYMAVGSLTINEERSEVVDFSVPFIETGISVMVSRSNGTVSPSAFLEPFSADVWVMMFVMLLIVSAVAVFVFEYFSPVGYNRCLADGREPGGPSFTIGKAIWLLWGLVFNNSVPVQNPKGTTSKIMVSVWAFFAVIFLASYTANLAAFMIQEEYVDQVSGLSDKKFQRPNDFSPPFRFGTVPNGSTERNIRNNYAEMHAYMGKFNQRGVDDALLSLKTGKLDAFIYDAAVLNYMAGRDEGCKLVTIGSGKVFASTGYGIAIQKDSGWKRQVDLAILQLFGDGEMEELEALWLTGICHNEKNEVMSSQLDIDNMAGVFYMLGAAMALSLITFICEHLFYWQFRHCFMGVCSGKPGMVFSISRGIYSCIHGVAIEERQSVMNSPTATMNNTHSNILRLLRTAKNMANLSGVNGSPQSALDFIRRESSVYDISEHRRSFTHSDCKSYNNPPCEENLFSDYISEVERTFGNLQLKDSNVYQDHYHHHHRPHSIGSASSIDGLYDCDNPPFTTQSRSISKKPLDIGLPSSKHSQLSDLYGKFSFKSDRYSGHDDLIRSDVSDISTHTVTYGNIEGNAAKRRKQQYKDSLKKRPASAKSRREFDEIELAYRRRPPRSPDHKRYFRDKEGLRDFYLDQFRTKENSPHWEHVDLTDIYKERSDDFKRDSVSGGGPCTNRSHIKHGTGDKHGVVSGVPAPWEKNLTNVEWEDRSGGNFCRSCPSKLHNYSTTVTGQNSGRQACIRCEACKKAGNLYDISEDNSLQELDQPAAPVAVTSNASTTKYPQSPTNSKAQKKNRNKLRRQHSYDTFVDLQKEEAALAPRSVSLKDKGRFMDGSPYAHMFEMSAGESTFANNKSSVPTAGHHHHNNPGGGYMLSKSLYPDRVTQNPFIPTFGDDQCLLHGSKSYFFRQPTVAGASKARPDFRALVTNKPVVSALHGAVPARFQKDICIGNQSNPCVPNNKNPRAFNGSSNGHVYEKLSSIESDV
T1 sequence (Q12879 23-1464, species assumed, other chains not shown): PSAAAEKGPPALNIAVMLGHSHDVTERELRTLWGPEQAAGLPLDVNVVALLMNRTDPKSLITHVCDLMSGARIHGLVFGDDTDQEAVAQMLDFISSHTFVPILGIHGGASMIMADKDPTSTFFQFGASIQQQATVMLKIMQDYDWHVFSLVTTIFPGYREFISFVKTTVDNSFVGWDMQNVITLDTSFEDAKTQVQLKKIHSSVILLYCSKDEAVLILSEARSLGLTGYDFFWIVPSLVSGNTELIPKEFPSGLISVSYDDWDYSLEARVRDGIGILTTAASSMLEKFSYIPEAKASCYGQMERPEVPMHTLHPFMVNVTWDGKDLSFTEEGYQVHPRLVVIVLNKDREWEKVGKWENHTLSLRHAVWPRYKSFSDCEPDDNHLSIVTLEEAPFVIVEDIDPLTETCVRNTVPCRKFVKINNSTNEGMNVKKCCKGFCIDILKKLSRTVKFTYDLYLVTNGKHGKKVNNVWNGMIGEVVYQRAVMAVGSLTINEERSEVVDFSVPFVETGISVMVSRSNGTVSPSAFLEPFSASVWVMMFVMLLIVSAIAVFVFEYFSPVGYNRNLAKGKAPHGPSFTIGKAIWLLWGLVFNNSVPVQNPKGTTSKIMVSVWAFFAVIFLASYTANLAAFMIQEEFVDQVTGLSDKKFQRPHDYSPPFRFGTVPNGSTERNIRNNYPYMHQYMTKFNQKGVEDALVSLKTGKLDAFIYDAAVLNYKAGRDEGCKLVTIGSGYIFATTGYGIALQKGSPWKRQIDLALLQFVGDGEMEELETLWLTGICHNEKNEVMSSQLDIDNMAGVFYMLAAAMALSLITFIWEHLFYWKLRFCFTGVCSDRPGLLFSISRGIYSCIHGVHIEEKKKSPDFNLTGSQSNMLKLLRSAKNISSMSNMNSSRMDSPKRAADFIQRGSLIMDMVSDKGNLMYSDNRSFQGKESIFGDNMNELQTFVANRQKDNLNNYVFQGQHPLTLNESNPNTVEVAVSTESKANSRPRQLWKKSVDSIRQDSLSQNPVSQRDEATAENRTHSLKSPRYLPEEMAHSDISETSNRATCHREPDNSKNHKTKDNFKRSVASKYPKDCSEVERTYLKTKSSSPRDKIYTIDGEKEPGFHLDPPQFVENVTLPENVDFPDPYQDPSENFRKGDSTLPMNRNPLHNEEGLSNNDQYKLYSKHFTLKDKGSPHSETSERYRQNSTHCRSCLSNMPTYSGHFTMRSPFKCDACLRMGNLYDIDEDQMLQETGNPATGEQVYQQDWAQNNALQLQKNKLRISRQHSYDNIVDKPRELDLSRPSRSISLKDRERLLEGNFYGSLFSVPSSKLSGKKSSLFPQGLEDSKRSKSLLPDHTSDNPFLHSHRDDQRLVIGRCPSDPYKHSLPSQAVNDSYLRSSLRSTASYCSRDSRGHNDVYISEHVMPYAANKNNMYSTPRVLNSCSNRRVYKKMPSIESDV

On to `NC(=O)C(CO)N1CC2(CCCCC2)C1=O` (single isomer, unassigned) [AT, 3-hydroxy-2-(l-oxo-2-azaspiro[3.5]nonan-2-yl)propanamide], for which, in data set [1] (1 wk post-dose), the “% reduction in float time” value is 55.6% and the Significance vs. vehicle result is recorded as “Yes (statistically significant (p<=0.05) from vehicle at dose level shown)”. Besides, in data set [1] (1 h post-dose), the “% reduction in float time” value worked out at 63.4% and the Significance vs. vehicle entry was “Yes (statistically significant (p<=0.05) from vehicle at dose level shown)”. Further, in data set [2], the AUC(0-t) amounted to 2090 ng·h/mL, the half-life was 143 min, the C0 was determined as 2760 ng/mL and the Vd amounted to 1.14 L/kg. In data set [2], the CI is recorded as 15.94 mL/min/kg. For the same compound, in data set [3], the AUC(0-t) turned out to be 8340 ng·h/mL, the bioavailability amounted to 80%, the Tmax came to 15 min and the Cmax is 6520 ng/mL. In data set [3], the “CSF Cmax” value is given as 1758 ng/mL and the “Brain Cmax” value came out at 120 ng/mL. For the same compound, in data set [4], the “A: % maximal [3H]MK-801 binding relative to 1 mM glycine” value is “+ (<100%=+)” and the concentration giving a half-maximal response (EC50) was under 1 nM. In addition, in data set [5], the “A: % maximal [3H]MK-801 binding relative to 1 mM glycine” value was “+ (<100%=+)” and the EC50 was under 1 nM.

`O=C1NCC12CCCCC2` [Compound AB, 2-azaspiro[3.5]nonan-1-one]: in data set [1] (1 h post-dose), the “% reduction in float time” value is listed as 73.2% and the Significance vs. vehicle result is given as “Yes (statistically significant (p<=0.05) from vehicle at dose level shown)”. Further, in data set [1] (24 h post-dose), the “% reduction in float time” value stood at 79.90% and the Significance vs. vehicle result is reported as “Yes (statistically significant (p<=0.05) from vehicle at dose level shown)”. Further, in data set [2], the area under the curve AUC(0-t) worked out at 2650 ng·h/mL, the half-life is 205 min, the C0 was determined as 2050 ng/mL and the Vd is 1.13 L/kg. Further, in data set [2], the CI is reported as 16.1 mL/min/kg. In data set [3], the area under the curve AUC(0-t) was 11600 ng·h/mL, the bioavailability was found to be 88%, the time to peak (Tmax) was 25.2 min and the Cmax came out at 7690 ng/mL. Moreover, in data set [4], the EC50 is at least 1 nM and the Emax is under 100%. Besides, in data set [5], the EC50 was under 1 nM and the Emax was under 100%.

Take `CC1CCC2(CC1)CN(C(CCC(N)=O)C(N)=O)C2=O` (single isomer, unassigned) [BF, 2-(7-methyl-1-oxo-2-azaspiro[3.5]nonan-2-yl)pentanediamide]: in data set [1] (1 h post-dose), the “% reduction in float time” value stood at 84.4% and the Significance vs. vehicle entry is recorded as “Yes (statistically significant (p<=0.05) from vehicle at dose level shown)”. In data set [2], the AUC(0-t) came to 973 ng·h/mL, the half-life was 90.6 min, the C0 came to 2220 ng/mL and the Vd is 1.52 L/kg. The CI in data set [2] is reported as 34.13 mL/min/kg. In addition, in data set [3], the AUC(0-t) was found to be 5290 ng·h/mL, the bioavailability was 100%, the Tmax was found to be 30 min and the peak concentration (Cmax) was determined as 3020 ng/mL. In addition, in data set [3], the “CSF Cmax” value stood at 56.6 ng/mL and the “Brain Cmax” value is on record as 61.2 ng/mL. In data set [4], the “A: % maximal [3H]MK-801 binding relative to 1 mM glycine” value was “+ (<100%=+)” and the EC50 is under 1 nM. In addition, in data set [5], the “A: % maximal [3H]MK-801 binding relative to 1 mM glycine” value is listed as “+ (<100%=+)” and the EC50 was under 1 nM.

Take `C[C@@H](O)[C@@H](C(N)=O)N1CC2(CCCCC2)C1=O` [Compound AA, (2S,3R)-3-hydroxy-2-(1-oxo-2-azaspiro[3.5]nonan-2-yl)butanamide]: in data set [1] (1 h post-dose), the “% reduction in float time” value worked out at 42.0% and the Significance vs. vehicle entry is recorded as “Yes (statistically significant (p<=0.05) from vehicle at dose level shown)”. In addition, in data set [1] (24 h post-dose), the “% reduction in float time” value was found to be 48.60% and the Significance vs. vehicle entry is on record as “Yes (statistically significant (p<=0.05) from vehicle at dose level shown)”. Also, in data set [2], the AUC(0-t) is 397 ng·h/mL, the half-life is 35.4 min, the C0 was determined as 608 ng/mL and the Vd was determined as 2.23 L/kg. The same compound had a CI in data set [2] of 84.91 mL/min/kg. In data set [3], the AUC(0-t) is 1540 ng·h/mL, the bioavailability was 78%, the Tmax was 19.8 min and the Cmax was 1230 ng/mL. In addition, in data set [4], the Emax turned out to be 0%. For the same compound, in data set [5], the EC50 is under 1 nM and the Emax is under 100%.
